The values that follow come from ChEMBL document CHEMBL5120791, “Triterpenes from Pholiota populnea as Cytotoxic Agents and Chemosensitizers to Overcome Multidrug Resistance of Cancer Cells” (J Nat Prod, 2022).

In series [1] the target is ATP-dependent translocase ABCB1 (Homo sapiens, UniProt P08183). Put plainly: Inhibition of P-gp in human COLO 320 cells assessed as potentiation of doxorubicin-induced cytotoxicity by measuring combination index measured after 72 hrs by checkerboard assay. Type of series: cell-based. The note with it: colo 320, 72 h.
Sequence of ATP-dependent translocase ABCB1 (P08183 whole entry): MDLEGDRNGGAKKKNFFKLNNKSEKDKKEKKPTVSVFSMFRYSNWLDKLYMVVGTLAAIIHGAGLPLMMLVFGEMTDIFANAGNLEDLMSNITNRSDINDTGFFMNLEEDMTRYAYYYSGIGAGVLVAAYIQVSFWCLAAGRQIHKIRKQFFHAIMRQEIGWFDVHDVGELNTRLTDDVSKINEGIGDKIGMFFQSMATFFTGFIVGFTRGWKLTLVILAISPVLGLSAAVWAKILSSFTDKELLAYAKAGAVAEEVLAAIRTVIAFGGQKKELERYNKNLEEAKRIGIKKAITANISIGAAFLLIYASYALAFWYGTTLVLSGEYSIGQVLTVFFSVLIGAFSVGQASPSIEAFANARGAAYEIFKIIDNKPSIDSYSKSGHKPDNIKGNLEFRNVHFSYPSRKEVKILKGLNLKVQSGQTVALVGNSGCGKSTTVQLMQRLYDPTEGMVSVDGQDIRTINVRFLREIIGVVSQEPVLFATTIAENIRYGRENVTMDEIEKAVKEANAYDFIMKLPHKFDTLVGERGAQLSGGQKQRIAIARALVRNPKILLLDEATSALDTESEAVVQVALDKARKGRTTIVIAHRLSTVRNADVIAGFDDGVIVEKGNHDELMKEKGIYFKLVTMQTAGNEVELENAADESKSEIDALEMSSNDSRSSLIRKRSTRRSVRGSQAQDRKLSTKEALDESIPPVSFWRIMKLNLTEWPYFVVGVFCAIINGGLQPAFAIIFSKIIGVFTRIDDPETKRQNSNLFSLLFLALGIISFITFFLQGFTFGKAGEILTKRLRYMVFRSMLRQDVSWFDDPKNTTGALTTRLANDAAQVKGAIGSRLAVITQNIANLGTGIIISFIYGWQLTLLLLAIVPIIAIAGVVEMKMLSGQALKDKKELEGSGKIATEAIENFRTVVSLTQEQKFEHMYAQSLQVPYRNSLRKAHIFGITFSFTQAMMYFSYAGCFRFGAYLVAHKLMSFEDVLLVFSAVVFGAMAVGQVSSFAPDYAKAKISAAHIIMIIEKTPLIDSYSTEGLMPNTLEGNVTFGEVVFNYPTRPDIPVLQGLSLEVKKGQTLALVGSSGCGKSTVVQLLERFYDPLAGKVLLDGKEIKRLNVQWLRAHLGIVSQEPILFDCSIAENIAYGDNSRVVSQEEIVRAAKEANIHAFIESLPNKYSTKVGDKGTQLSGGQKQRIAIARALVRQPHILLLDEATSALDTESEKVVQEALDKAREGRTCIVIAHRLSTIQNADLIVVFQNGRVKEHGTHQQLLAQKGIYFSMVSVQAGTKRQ
The test system of the next series is COLO 320. Put plainly: Cytotoxicity against human COLO 320 cells assessed as reduction in cell viability measured after 24 hrs by MTT assay. It counts as functional, cell-based. The following applies: COLO 320, 24 h. (In general: Tetrazolium dyes change colour on reduction, which living cells bring about.)
For another series, the system named is COLO 205. Description: Cytotoxicity against human COLO 205 cells assessed as reduction in cell viability measured after 24 hrs by MTT assay. It counts as functional, cell-based. The following applies: COLO 205, 24 h.

SMILES strings stand for the structures. pIC50: −log10 of the molar value.

For orientation: pIC50 means the IC50 on a negative log10 scale, so that one unit is a factor of ten. As to `CC(C)[C@@H](C)/C=C/[C@@H](C)[C@H]1CC[C@H]2C3=CC[C@H]4CC(=O)CC[C@]4(C)[C@H]3CC[C@]12C`, the CI50 in series [1] is recorded as 0.521. Moreover, the pIC50 is 5.08 in the series on COLO 320 and 4.94 in the series on COLO 205.
